# Source: US9593307B2, “Defined media for expansion and maintenance of pluripotent stem cells” (Janssen Biotech, Inc., priority 2012, dated 2017)
# Legend:
# [1] = system: human embryonic stem cell line H1; experiment: Real-time PCR of pluripotency and differentiation genes; type: cell-based; details: passage 3, Example 5
# Text: After passage 5, only IH-1 and IH-3 were further compared to the cells cultured in mTeSR®1 media (Catalog No. 05850, Stem-Cell Technologies, Inc., Vancouver BC, Canada). […]
# Approximately 1% of the cells were SOX17+ (FIG. 7D) and ˜85% of the cells were FOXA2+ (FIG. 7E). FIG. 8A to FIG. 8F show images of immunofluorescence staining of H1 cells cultured in IH-3 media for 18 passages. These images illustrate that a significant number of OCT4 and SOX2 positive cells were also FOXA2+. H1 cells cultured in IH3 media had acquired a phenotype where at least 70% of the cells were OCT4+ NANOG+ SOX2+ KI-67+ ZFP42− and FOXA2+. This represents a population of cells not yet described in the art.
# [2] = system: human embryonic stem cell line H1; experiment: Culture in test media: growth and colony morphology (phase-contrast); type: cell-based; details: Example 5
# Protocol: Cells of the human embryonic stem cell line H1 (at passage 35 to passage 40), cultured on MATRIGEL™ (Catalog No. 354230, 1:30 dilution; Corning Incorporated, Corning, N.Y.) coated dishes in mTeSR®1 media (Catalog No. 05850, Stem-Cell Technologies, Inc., Vancouver BC, Canada) and passaged using ethylenediaminetetraacetic acid (“EDTA”), were used as the starting population to test various media compositions. Cells were passaged as small colonies using 5-10 min EDTA (Catalog No. #170711E, Lonza Walkersville, Inc., Walkersville, Md.) treatment at room temperature. Cultures were routinely split in a ratio of 1:6 to 1:10 at each passage. Table I lists the initial media formulations tested for their ability to proliferate H1 cells while maintaining their undifferentiated morphology and pluripotency markers.
# Media IH-1, IH-3, and IH-6 were selected for further evaluation.
# [3] = day 4 following seeding, IH-3-2 media with the given BSA
# [4] = passage 3, IH-3-2 media with the given BSA
Substance,"Markers associated with a differentiated cell (AFP, MIXL1, T (BRY); PCR) [1]","Cell morphology [2, 3]","Cell morphology [2, 4]","Confluency of cells ([2]; passage 3, compared to fatty acid free BSA)"
"Sigma BSA: 2% Sigma BSA (catalog No. A2153; Lot: 061M1804V, Sigma Aldrich) used to supplement IH-3-2 media",significant upregulation,morphological evidence of differentiated cells,morphological evidence of differentiated cells,significant drop in confluency
"fatty acid-free BSA: fatty-acid free BSA (Catalog No. 7500804; Lot: 11G54001, LAMPIRE Biological Laboratories) in IH-3-2 media",–,no gross differentiated cell morphology evident,no gross differentiated cell morphology evident,–
